From US11040028B2, “Penicinotam derivative, preparation method and use thereof” (OCEAN UNIVERSITY OF CHINA, priority 2017, dated 2021)

Key:
Format in all cases: cell-based
[1] = tested on: human lung fibroblasts HFL1; assay: Anti-fibrosis activity test: inhibition of proliferation of human lung fibroblasts HFL1 (CCK-8); conditions: Homo sapiens, HFL1, 48 h
Procedure, shortened: (§1)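 After one day of adherence at 37° C in 5% CO2, cells (seeded at 2×10^4 cells/mL) received the compounds for two days in triplicate. Inhibition of proliferation was quantified with CCK-8 at 450 nm, with IC50 calculated from IR = (1−Ai/Ao)×100%.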

[2] = tested on: cardiac fibroblast RAT-iCell-C002; assay: Anti-fibrosis activity test: inhibition of proliferation of cardiac fibroblast RAT-iCell-C002 (CCK-8); conditions: Cardiac fibroblast, 48 h
Procedure, shortened: as §1

[3] = tested on: human fibrosarcoma cells HT-1080; assay: Anti-fibrosis activity test: inhibition of proliferation of human fibrosarcoma cells HT-1080 (CCK-8); conditions: Homo sapiens, HT-1080, 48 h
Procedure, shortened: as §1

[4] = tested on: human embryonic lung fibroblast IMR-90; assay: Anti-fibrosis activity test: inhibition of proliferation of human embryonic lung fibroblast IMR-90 (CCK-8)
Procedure, shortened: as §1

NF-κB = assay: Immunological activity test: inhibition of NF-κB activity; conditions: initial concentration of 30 μM; a/b isomers given as first/second symbol; read-out: IC50 (μM), inhibitory activity against NF-κB
Procedure, shortened: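 Each compound is tested at 30 μM for its ability to suppress NF-κB signalling. Parthenolide runs alongside as the positive control, and the data are then analysed to give IC50 values.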

BHK-21 cells = assay: Anti-fibrosis activity test: inhibition of BHK-21 cell proliferation (CCK-8); conditions: Mesocricetus auratus, BHK-21, 48 h
Procedure, shortened: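 Proliferation inhibition was read as CCK-8 absorbance at 450 nm (2-hour development) relative to untreated blank, with IC50 fitted from the curve. Before that, adhered cells (2×10^4 cells/mL, 24 hours) had 48 hours' treatment at several concentrations, in triplicate, at 37° C/5% CO2; pirfenidone was the reference.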

[5] = tested on: human hepatic stellate cells LX-2; assay: Anti-fibrosis activity test: inhibition of proliferation of human hepatic stellate cells LX-2 (CCK-8); conditions: Homo sapiens, 48 h
Procedure, shortened: as §1

[6] = tested on: mouse macrophages (RAW264.7); assay: Lipopolysaccharide-induced NO secretion in macrophages (Griess); conditions: Mus musculus, RAW264.7, 24 h, RAW264.7, LPS 1 μg/ml, a/b isomers given as first/second symbol, read-out: IC50 (μM), inhibition of lipopolysaccharide-induced NO secretion in macrophages
Procedure, shortened: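 LPS 1 μg/ml, 24 h, RAW264.7 (DMEM/10% FBS); cpds at varied concs. Supernatant NO by Griess, A548; % inhibition vs blank medium.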

[7] = tested on: human dermal fibroblasts CCC-ESF-1; assay: Anti-fibrosis activity test: inhibition of proliferation of human dermal fibroblasts CCC-ESF-1 (CCK-8); conditions: Fibroblast
Procedure, shortened: as §1

[8] = human lung fibroblasts HFL1, CCK-8, 48 hours
[9] = cardiac fibroblast RAT-iCell-C002, CCK-8, 48 hours
[10] = human fibrosarcoma cells HT-1080, CCK-8, 48 hours
[11] = human embryonic lung fibroblast IMR-90, CCK-8, 48 hours
[12] = CCK-8, 48 hours after administration
[13] = human hepatic stellate cells LX-2, CCK-8, 48 hours
[14] = human dermal fibroblasts CCC-ESF-1, CCK-8, 48 hours

IC50 [3, 10] | IC50 (NF-κB) | IC50 [6] | IC50 ([3]; HT-1080 cells, 48 h, CCK-8) | Structure (SMILES) | IC50 [1, 8] | IC50 [2, 9] | IC50 [4, 11] | IC50 (BHK-21 cells; [12]) | IC50 [5, 13] | IC50 [7, 14] | IC50 ([1]; HFL1 cells, 48 h, CCK-8) | IC50 ([2]; RAT-iCell-C002 cells, CCK-8) | IC50 ([4]; Homo sapiens, IMR-90 cells, 48 h, CCK-8) | IC50 (BHK-21 cells; 48 h, CCK-8) | IC50 ([5]; LX-2, 48 h, LX-2 cells, CCK-8) | IC50 ([7]; Homo sapiens, CCC-ESF-1 cells, 48 h, CCK-8)
 | 1 to 10 µM | 1 to 10 µM | 0.05 to 5 mM | CCOCCCn1c2c(c(=O)c3ccccc31)C(=O)n1cccc1-2 [Compound 672a, 4-(3-Ethoxypropyl)-9H-pyrrolizino[1,2-b]quinoline-9,10(4H)-dione] |  |  |  |  |  |  | 0.05 to 5 mM | 0.05 to 5 mM | 0.05 to 5 mM | 0.05 to 5 mM | 0.05 to 5 mM | 0.05 to 5 mM
0.05 to 5 mM | 1 to 10 µM | 1 to 10 µM |  | COc1cc(COc2c3c(nc4ccccc24)-c2cccn2C3=O)cc(OC)c1 [Compound 580b, 9-((3,5-dimethoxybenzyl)oxy)-10H-pyrrolizino[1,2-b]quinolin-10-one] | 0.05 to 5 mM | 0.05 to 5 mM | 0.05 to 5 mM | 0.05 to 5 mM | 0.05 to 5 mM | 0.05 to 5 mM |  |  |  |  |  | 
< 0.05 mM | 0.1 to 1 µM | 1 to 10 µM |  | O=C1c2c(n(Cc3ccc(F)c(F)c3F)c3ccccc3c2=O)-c2cccn21 [Compound 584a, 4-(2,3,4-Trifluorobenzyl)-9H-pyrrolizino[1,2-b]quinoline-9,10(4H)-dione] | 0.05 to 5 mM | 0.05 to 5 mM | 0.05 to 5 mM | < 0.05 mM | 0.05 to 5 mM | 0.05 to 5 mM |  |  |  |  |  | 

The next lines start with the compound.

Structure (SMILES) | IC50 [3, 10] | IC50 (NF-κB) | IC50 [6] | IC50 ([3]; HT-1080 cells, 48 h, CCK-8) | IC50 [1, 8] | IC50 [2, 9] | IC50 [4, 11] | IC50 (BHK-21 cells; [12]) | IC50 [5, 13] | IC50 [7, 14] | IC50 ([1]; HFL1 cells, 48 h, CCK-8) | IC50 ([2]; RAT-iCell-C002 cells, CCK-8) | IC50 ([4]; Homo sapiens, IMR-90 cells, 48 h, CCK-8) | IC50 (BHK-21 cells; 48 h, CCK-8) | IC50 ([5]; LX-2, 48 h, LX-2 cells, CCK-8) | IC50 ([7]; Homo sapiens, CCC-ESF-1 cells, 48 h, CCK-8)
CC(C)(C)Cn1c2c(c(=O)c3ccccc31)C(=O)n1cccc1-2 [Compound 656a, 4-Neopentyl-9H-pyrrolizino[1,2-b]quinoline-9,10(4H)-dione] | 0.05 to 5 mM | 1 to 10 µM | 1 to 10 µM |  | 0.05 to 5 mM | 0.05 to 5 mM | 0.05 to 5 mM | 0.05 to 5 mM | 0.05 to 5 mM | 0.05 to 5 mM |  |  |  |  |  | 
N#Cc1ccc2[nH]c3c(c(=O)c2c1)C(=O)n1cccc1-3 [Compound 222a, 9,10-Dioxo-4,10-dihydro-9H-pyrrolizino[1,2-b]quinoline-7-carbonitrile] | 0.05 to 5 mM | 1 to 10 µM | 1 to 10 µM |  | 0.05 to 5 mM | 0.05 to 5 mM | 0.05 to 5 mM | 0.05 to 5 mM | 0.05 to 5 mM | 0.05 to 5 mM |  |  |  |  |  | 
O=C1c2c(n(Cc3ccc(F)c(Cl)c3)c3ccccc3c2=O)-c2cccn21 [Compound 603a, 4-(3-Chloro-4-fluorobenzyl)-9H-pyrrolizino[1,2-b]quinoline-9,10(4H)-dione] | 0.05 to 5 mM | 1 to 10 µM | 1 to 10 µM |  | 0.05 to 5 mM | 0.05 to 5 mM | 0.05 to 5 mM | < 0.05 mM | 0.05 to 5 mM | 0.05 to 5 mM |  |  |  |  |  | 
O=C1c2c(n(Cc3cc(C(F)(F)F)cc(C(F)(F)F)c3)c3ccccc3c2=O)-c2cccn21 [Compound 607a, 4-(3,5-Bis(trifluoromethyl)benzyl)-9H-pyrrolizino[1,2-b]quinoline-9,10(4H)-dione] | 0.05 to 5 mM | 1 to 10 µM | 0.1 to 1 µM |  | 0.05 to 5 mM | 0.05 to 5 mM | 0.05 to 5 mM | 0.05 to 5 mM | 0.05 to 5 mM | 0.05 to 5 mM |  |  |  |  |  | 
O=C1c2c(nc3ccccc3c2OCc2ccc(I)cc2)-c2cccn21 [Compound 575b, 9-((4-iodobenzyl)oxy)-10H-pyrrolizino[1,2-b]quinolin-10-one] | 0.05 to 5 mM | 1 to 10 µM | 1 to 10 µM |  | 0.05 to 5 mM | 0.05 to 5 mM | 0.05 to 5 mM | 0.05 to 5 mM | 0.05 to 5 mM | 0.05 to 5 mM |  |  |  |  |  | 
CN(C)CCOc1c2c(nc3ccccc13)-c1cccn1C2=O [Compound 12b, 9-(2-(dimethylamino)ethoxy)-10H-pyrrolizino[1,2-b]quinolin-10-one] | 0.05 to 5 mM | 1 to 10 µM | 1 to 10 µM |  | 0.05 to 5 mM | 0.05 to 5 mM | 0.05 to 5 mM | 0.05 to 5 mM | 0.05 to 5 mM | 0.05 to 5 mM |  |  |  |  |  | 
